According to the supplement of paper PMC10307832:

How the values were obtained:
Assay in all cases: relative viability (nuclei count vs DMSO), 5 days (fraction); higher = more cells survive
[1] = compound: Cc1cnc(CNC(=O)c2c(=O)c3ccc(N4CCCN(C)CC4)nc3n3c2sc2ccccc23)cn1 [CX-5461] + CC1(C)CCC(c2ccc(Cl)cc2)=C(CN2CCN(c3ccc(C(=O)NS(=O)(=O)c4ccc(N[C@H](CCN5CCOCC5)CSc5ccccc5)c(S(=O)(=O)C(F)(F)F)c4)cc3)CC2)C1 [Navitoclax] (partner 0.5 µM)
Method in brief: (§1)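 Relative viability equals treated-well nuclei counts divided by vehicle-well nuclei counts. Counts came from 4× images of lung cancer cell lines grown in 1536-well plates for 5 days after pin-tool dosing on the day after seeding. Dosing used one drug alone or a fixed anchor-drug dose plus five library-drug doses (not always all listed) in √10 steps, and values are medians of duplicate plates.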

[2] = compound: Cc1cnc(CNC(=O)c2c(=O)c3ccc(N4CCCN(C)CC4)nc3n3c2sc2ccccc23)cn1 [CX-5461] + CS(=O)(=O)CCNCc1ccc(-c2ccc3ncnc(Nc4ccc(OCc5cccc(F)c5)c(Cl)c4)c3c2)o1 [Lapatinib] (partner 2 µM)
Method in brief: as §1

[3] = compound: O=C(Nc1cc(C(F)(F)F)cc(C(F)(F)F)c1)c1cc(Cl)ccc1O [IMD-0354] + CCNC(=O)c1noc(-c2cc(C(C)C)c(O)cc2O)c1-c1ccc(CN2CCOCC2)cc1 [Luminespib] (partner 0.01 µM)
Method in brief: as §1

[4] = compound: O=C(Nc1cc(C(F)(F)F)cc(C(F)(F)F)c1)c1cc(Cl)ccc1O [IMD-0354] + Cc1nc(Nc2ncc(C(=O)Nc3c(C)cccc3Cl)s2)cc(N2CCN(CCO)CC2)n1 [Dasatinib] (partner 0.075 µM)
Method in brief: as §1

Cell Line | relative viability ([1]; first compound 0.01 µM) | relative viability ([1]; first compound 0.03162 µM) | relative viability ([1]; first compound 0.1 µM) | relative viability ([1]; first compound 0.3162 µM) | relative viability ([1]; first compound 1 µM) | relative viability ([2]; first compound 0.01 µM) | relative viability ([2]; first compound 0.03162 µM) | relative viability ([2]; first compound 0.1 µM) | relative viability ([2]; first compound 0.3162 µM) | relative viability ([2]; first compound 1 µM) | relative viability ([3]; first compound 0.04 µM) | relative viability ([3]; first compound 0.1265 µM) | relative viability ([3]; first compound 0.4 µM) | relative viability ([3]; first compound 1.265 µM) | relative viability ([3]; first compound 4 µM) | relative viability ([4]; first compound 0.04 µM) | relative viability ([4]; first compound 0.1265 µM) | relative viability ([4]; first compound 0.4 µM) | relative viability ([4]; first compound 1.265 µM) | relative viability ([4]; first compound 4 µM)
SK-LU-1 | 0.792 | 0.972 | 0.718 | 0.808 | 0.23 | 0.948 | 0.837 | 0.852 | 0.96 | 0.535 | 0.178 | 0.169 | 0.244 | 0.149 | 0.169 | 0.173 | 0.188 | 0.154 | 0.139 | 0.134
COR-L23 | 0.966 | 0.981 | 0.786 | 0.978 | 0.417 | 1.08 | 0.833 | 0.674 | 0.804 | 0.414 | 0.583 | 0.53 | 0.402 | 0.115 | 0.166 | 0.426 | 0.475 | 0.37 | 0.0763 | 0.201
NCI-H2087 | 1.24 | 1.11 | 0.997 | 1.12 | 0.797 | 1.13 | 1.18 | 1.18 | 0.407 | 0.507 | 0.147 | 0.183 | 0.173 | 0.12 | 0.127 | 0.828 | 0.896 | 0.312 | 0.122 | 0.151
LC-2-ad | 0.449 | 0.533 | 0.434 | 0.553 | 0.362 | 0.971 | 1.02 | 0.816 | 0.685 | 0.476 | 1.01 | 0.87 | 0.674 | 0.312 | 0.226 | 0.644 | 0.486 | 0.253 | 0.146 | 0.126
NCI-H1915 | 0.799 | 0.784 | 0.809 | 0.743 | 0.758 | 1.01 | 1.06 | 0.99 | 0.379 | 1.04 | 0.609 | 0.665 | 0.296 | 0.355 | 0.226 | 0.31 | 0.322 | 0.129 | 0.109 | 0.14
NCI-H1944 | 1.06 | 1.09 | 1.01 | – | 1.02 | 0.777 | 0.981 | 0.806 | – | 0.655 | 0.727 | 0.818 | 0.669 | 0.634 | 0.17 | 0.21 | 0.212 | 0.22 | 0.167 | 0.114
NCI-H2023 | 1.01 | 1.03 | – | 0.908 | 0.152 | 0.788 | 0.794 | – | 0.143 | 0.106 | 1.03 | 0.799 | 0.292 | 0.0846 | 0.121 | 0.713 | 0.497 | 0.361 | 0.108 | 0.113
COR-L 105 | 0.891 | 0.734 | 0.768 | 0.801 | 0.689 | 0.363 | 0.405 | 0.376 | 0.265 | 0.267 | 0.891 | 0.906 | 0.463 | 0.317 | 0.236 | 0.401 | 0.316 | 0.283 | 0.246 | 0.197
